Drawing on patent US9018214B2, “Bicyclic heterocycle compounds and their uses in therapy” (Astex Therapeutics Limited, priority 2011, dated 2015), this text covers EC50, inhibition and IC50 for 24 compounds.

Structures are written as SMILES. Counter-ions that a name gives are not always drawn. Like-named read-outs stand apart in the source and are kept apart here.

Experiment [1] relates to EVSA-T (human breast carcinoma). Description: Anti-proliferative activity, Alamar Blue assay, EVSA-T. The experiment is classed as cell-based. Particulars: Homo sapiens, EVSA-T, 72 h, read-out: EVSA-T prolif (EC50). Background: The colour change of resazurin is a common sign of viable cells or microbes.
Experiment [2] concerns the target BIR3 domain of human XIAP (residues 252-350) (Homo sapiens (Human), UniProt P98170). Nature of the experiment: XIAP in vitro competitive displacement binding assay (fluorescence polarization). The following applies: for IC50: read-out: IC50 or PI Xiap: IC50. (Polarisation of emitted light reports the rotation of a fluorescent probe.)
In experiment [3] the target is BIR3 domain of human cIAP-1 (residues 267-363) (Homo sapiens (Human), UniProt Q13490). Nature of the experiment: cIAP-1 in vitro competitive displacement binding assay (fluorescence polarization; Probe A AVPIK(5&6FAM)-amide or Probe B AbuRPFK(5&6FAM)-amide).
The mark [4] stands for this setting: Probe B AbuRPFK(5&6FAM)-amide, read-out: IC50 or PI cIAP1: IC50.
Setting [5] is: read-out: IC50 or PI cIAP1: IC50.

As a reminder, the EC50 is the concentration needed to bring the measured effect to its halfway point. As to `C[C@@H]1CN(CC(=O)N2CC(C)(C)c3ccc(Cc4ccccc4)cc32)[C@@H](CO)CN1` [Example 42, 1-(6-Benzyl-3,3-dimethyl-2,3-dihydro-indol-1-yl)-2-((2R,5R)-2-hydroxymethyl-5-methyl-piperazin-1-yl)-ethanone trifluoroacetate salt], in experiment [1], the EC50 is 2.6 µM.
With `COC[C@H]1CN[C@H](C)CN1CC(=O)N1CC(C)(C)c2cnc(Nc3ccccc3)cc21` [Example 81, 1-(3,3-Dimethyl-6-phenylamino-2,3-dihydro-pyrrolo[3,2-c]pyridin-1-yl)-2-((2R,5R)-2-methoxymethyl-5-methyl-piperazin-1-yl)-ethanone hydrochloride salt], the inhibition at 300 µM in experiment [2] (1 h, @ 300 μM, read-out: IC50 or PI Xiap: PI) worked out at 51%. The inhibition at 100 µM in experiment [3] (3 h, Probe B, @ 100 μM, read-out: IC50 or PI cIAP1: PI) came to 36%.
As usually defined, the IC50 is the point on the concentration scale where inhibition reaches its midpoint. As to `COC[C@H]1CN[C@H](C)CN1CC(=O)N1CC(C)(C)c2cnc(N(C)c3ccccc3)cc21` [Example 84, 1-[3,3-Dimethyl-6-(methyl-phenyl-amino)-2,3-dihydro-pyrrolo[3,2-c]pyridin-1-yl]-2-((2R,5R)-2-methoxymethyl-5-methyl-piperazin-1-yl)-ethanone hydrochloride salt], the IC50 was 8.8 µM in experiment [2], less than 10 µM in experiment [3] and 1.3 µM in experiment [3] (setting [4]).
As to `C[C@@H]1CN(CC(=O)N2CCc3ccccc32)CCN1` [Example 85, 1-(2,3-Dihydro-1H-indol-1-yl)-2-[(3R)-3-methylpiperazin-1-yl]ethan-1-one, hydrochloride salt], the inhibition at 500 µM in experiment [2] (1 h, @ 500 μM, read-out: IC50 or PI Xiap: PI) came out at 52%. The inhibition at 250 µM in experiment [3] (3 h, Probe A, @ 250 μM, read-out: IC50 or PI cIAP1: PI) is 45%.
For `CC[C@H]1CN[C@H](C)CN1CC(=O)N1CC(C)(C)c2cnc(Cn3cccn3)cc21` [Example 95, 1-[3,3-Dimethyl-6-(1H-pyrazol-1-ylmethyl)-1H,2H,3H-pyrrolo[3,2-c]pyridin-1-yl]-2-[(2S,5R)-2-ethyl-5-methylpiperazin-1-yl]ethan-1-one], the IC50 was 3.1 µM in experiment [2] and 0.68 µM in experiment [3] (setting [4]).
Regarding `COC[C@H]1CN[C@H](C)CN1CC(=O)N1CC(C)(C)c2cnc(N3CCCC3=O)cc21` [Example 102, 1-(1-{2-[(2R,5R)-2-(Methoxymethyl)-5-methylpiperazin-1-yl]acetyl}-3,3-dimethyl-1H,2H,3H-pyrrolo[3,2-c]pyridin-6-yl)pyrrolidin-2-one, hydrochloride salt], the IC50 in experiment [2] is 3.2 µM; in experiment [3], less than 1 µM; in experiment [3] (setting [4]), 0.65 µM.
Consider `COC[C@H]1CN[C@H](C)CN1CC(=O)N1CC(C)(C)c2ccc(C#N)cc21` [Example 117, 1-{2-[(2R,5R)-2-(Methoxymethyl)-5-methylpiperazin-1-yl]acetyl}-3,3-dimethyl-2,3-dihydro-1H-indole-6-carbonitrile hydrochloride], for which the IC50 in experiment [2] is 0.79 µM; in experiment [3] (setting [4]), 0.71 µM.
For `CCC1(C)CN(C(=O)CN2C[C@@H](C)NC[C@@H]2COC)c2cc(Cl)ccc21` (stereo partly drawn) [Example 123, 1-(6-Chloro-3-ethyl-3-methyl-2,3-dihydro-1H-indol-1-yl)-2-[(2R,5R)-2-(methoxymethyl)-5-methylpiperazin-1-yl]ethan-1-one hydrochloride] the same measures were 1.3 µM and 0.52 µM.
For `COC[C@H]1CN[C@H](C)CN1CC(=O)N1CC(C)(C)c2cnc(-c3cnn(C)c3)cc21` [Example 124, 1-[3,3-Dimethyl-6-(1-methyl-1H-pyrazol-4-yl)-1H,2H,3H-pyrrolo[3,2-c]pyridin-1-yl]-2-[(2R,5R)-2-(methoxymethyl)-5-methylpiperazin-1-yl]ethan-1-one dihydrochloride], the results for the IC50 in experiment [2] and in experiment [3] (setting [5]) were 4 µM and 0.55 µM, respectively.
In the case of `COC[C@H]1CN[C@H](C)CN1CC(=O)N1CC(C)(C)c2ccc(CN3CCCC3=O)cc21` [Example 125, 1-[(1-{2-[(2R,5R)-2-(Methoxymethyl)-5-methylpiperazin-1-yl]acetyl}-3,3-dimethyl-2,3-dihydro-1H-indol-6-yl)methyl]pyrrolidin-2-one hydrochloride], the IC50 in experiment [2] was determined as 29 µM; in experiment [3] (setting [4]), 0.73 µM.
In the case of `COC[C@H]1CN[C@H](C)CN1CC(=O)N1CC(C)(COC)c2ccc(Br)cc21` (stereo partly drawn) [Example 127, 1-[6-Bromo-3-(methoxymethyl)-3-methyl-2,3-dihydro-1H-indol-1-yl]-2-[(2R,5R)-2-(methoxymethyl)-5-methylpiperazin-1-yl]ethan-1-one hydrochloride], the results for the IC50 in experiment [2] and in experiment [3] (setting [4]) were 1.2 µM and 0.35 µM, respectively.
The matching figures for `COC[C@H]1CN[C@H](C)CN1CC(=O)N1CC(C)(C(=O)OC)c2ccc(Br)cc21` (stereo partly drawn) [Example 129, Methyl 6-bromo-1-{2-[(2R,5R)-2-(methoxymethyl)-5-methylpiperazin-1-yl]acetyl}-3-methyl-2,3-dihydro-1H-indole-3-carboxylate hydrochloride]: 1.3 µM and 0.48 µM.
The matching figures for `COC[C@H]1CN[C@H](C)CN1CC(=O)N1CC(C)(C)c2cc(C)c(C#N)cc21` [Example 134, 1-{2-[(2R,5R)-2-(Methoxymethyl)-5-methylpiperazin-1-yl]acetyl}-3,3,5-trimethyl-2,3-dihydro-1H-indole-6-carbonitrile]: 0.78 µM and 0.59 µM.
For `C[C@@H]1CN(CC(=O)N2CC(C)(C)c3ccc(Cl)cc32)[C@@H](Cn2cccn2)CN1` [Example 138, 1-(6-Chloro-3,3-dimethyl-2,3-dihydro-1H-indol-1-yl)-2-[(2R,5R)-5-methyl-2-(1H-pyrazol-1-ylmethyl)piperazin-1-yl]ethan-1-one hydrochloride], the values for the IC50 in experiment [2] and in experiment [3] (setting [4]) were 0.64 µM and 0.33 µM, respectively.
As to `C[C@@H]1CN(CC(=O)N2C[C@@](C)(c3ccccc3)c3ccc(C#N)cc32)[C@@H](Cn2cccn2)CN1` [Example 154, (3S)-3-Methyl-1-{2-[(2R,5R)-5-methyl-2-(1H-pyrazol-1-ylmethyl)piperazin-1-yl]acetyl}-3-phenyl-2,3-dihydro-1H-indole-6-carbonitrile], the IC50 amounted to 0.13 µM in experiment [2] and 0.17 µM in experiment [3] (setting [4]).
For the compound `C[C@@H]1CN(CC(=O)N2C[C@](C)(c3ccccc3)c3ccc(C#N)cc32)[C@@H](Cn2cccn2)CN1` [Example 155, (3R)-3-Methyl-1-{2-[(2R,5R)-5-methyl-2-(1H-pyrazol-1-ylmethyl)piperazin-1-yl]acetyl}-3-phenyl-2,3-dihydro-1H-indole-6-carbonitrile], the IC50 in experiment [2] is 0.072 µM; in experiment [3] (setting [4]) it was 0.26 µM.
The matching figures for `C[C@@H]1CN(CC(=O)N2CC(C)(C)c3ccc(C#N)cc32)CCN1` [Example 162, 3,3-Dimethyl-1-{2-[(3R)-3-methylpiperazin-1-yl]acetyl}-2,3-dihydro-1H-indole-6-carbonitrile]: 5.5 µM and 7.9 µM.
The matching figures for `COC[C@H]1CN[C@H](C)CN1CC(=O)N1C[C@](C)(COC)c2ccc(Br)cc21` [Example 168, 1-[(3R)-6-Bromo-3-(methoxymethyl)-3-methyl-2,3-dihydro-1H-indol-1-yl]-2-[(2R,5R)-2-(methoxymethyl)-5-methylpiperazin-1-yl]ethan-1-one hydrochloride]: 4 µM and 0.89 µM.
For `COC[C@H]1CN[C@H](C)CN1CC(=O)N1C[C@@](C)(COC)c2ccc(Br)cc21` [Example 169, 1-[(3S)-6-Bromo-3-(methoxymethyl)-3-methyl-2,3-dihydro-1H-indol-1-yl]-2-[(2R,5R)-2-(methoxymethyl)-5-methylpiperazin-1-yl]ethan-1-one hydrochloride] the same measures were 0.92 µM and 0.32 µM.
With `COC[C@H]1CN[C@H](C)CN1CC(=O)N1CC(C)(C)c2cnc(C(C)(F)F)cc21` [Example 181, 1-[6-(1,1-Difluoroethyl)-3,3-dimethyl-1H,2H,3H-pyrrolo[3,2-c]pyridin-1-yl]-2-[(2R,5R)-2-(methoxymethyl)-5-methylpiperazin-1-yl]ethan-1-one dihydrochloride], the IC50 in experiment [2] was 0.33 µM; in experiment [3], less than 1 µM; in experiment [3] (setting [5]), 0.25 µM.
Regarding `COC[C@H]1CN[C@H](C)CN1CC(=O)N1CC(C)(C)c2nnc(Cl)cc21` [Example 183, 1-{3-Chloro-7,7-dimethyl-5H,6H,7H-pyrrolo[3,2-c]pyridazin-5-yl}-2-[(2R,5R)-2-(methoxymethyl)-5-methylpiperazin-1-yl]ethan-1-one hydrochloride], the results for the concentration for half-maximal inhibition (IC50) in experiment [2], in experiment [3] and in experiment [3] (setting [4]) were 1.7 µM, less than 1 µM and 0.63 µM, respectively.
Consider `C[C@@H]1CN(CC(=O)N2CC(C)(C)c3ncc(C(=O)c4ccccc4)cc32)[C@@H](CN2CCCC2=O)CN1` [Example 187, 1-{[(2R,5R)-1-(2-{6-Benzoyl-3,3-dimethyl-1H,2H,3H-pyrrolo[3,2-b]pyridin-1-yl}-2-oxoethyl)-5-methylpiperazin-2-yl]methyl}pyrrolidin-2-one dihydrochloride], for which the IC50 in experiment [2] was found to be 0.11 µM; in experiment [3] (setting [5]), 0.032 µM.
For `C[C@@H]1CN([C@@H](C)C(=O)N2CC(C)(C)c3ccc(C#N)cc32)CCN1` [Example 196, 3,3-Dimethyl-1-[(2S)-2-[(3R)-3-methylpiperazin-1-yl]propanoyl]-2,3-dihydro-1H-indole-6-carbonitrile hydrochloride], the IC50 in experiment [2] was determined as 5.6 µM; in experiment [3] (setting [4]), 31 µM.
Consider `COC[C@H]1CN[C@H](C)CN1CC(=O)N1CC(C)(C)c2ccc(-c3nnn[nH]3)cc21` [Example 258, 1-[3,3-Dimethyl-6-(1H-tetrazol-5-yl)-2,3-dihydro-indol-1-yl]-2-((2R,5R)-2-methoxymethyl-5-methyl-piperazin-1-yl)-ethanone hydrochloride], for which, in experiment [2] (1 h, @ 10 μM, read-out: IC50 or PI Xiap: PI), the inhibition at 10 µM was found to be 58%. The inhibition at 30 µM in experiment [3] (3 h, Probe B, @ 30 μM, read-out: IC50 or PI cIAP1: PI) stood at 37%.
